{"source": "patent US5036091A", "about": "“3-Aryloxazolidinone derivatives, process for their preparation and their use in therapy” (Delalande S.A., priority 1989, dated 1991)", "key": {"5-HTP potentialisation": {"system": "5-HTP potentialisation", "assay": "5-HTP potentialisation assay in rat (antidepressive activity)", "format": "in vivo", "details": "po, compound given orally, 5-HTP intra-peritoneal 1 h after the first treatment, read-out: ED50 (dose which brings about in 50% of the animals generalized shakings or stereotypies consecutive to 5-HTP)", "procedure": "Int. Pharmacodyn. (1982), 259, 194-221. The dose of product which, when given orally, brings about in 50% of the animals (ED50) the appearance of generalized shakings or of stereotypies (trinklings, shakes of head) consecutive to the administration by intra-peritoneal route 1 h after the first treatment of 5-hydroxy-tryptophane (5-HTP) is determined in rat."}, "acute toxicity in mouse": {"assay": "acute toxicity in mouse", "details": "in vivo, po, method of Litchfield and Wilcoxon"}}, "data": [{"smiles": "COCC1CN(c2ccc(OCCC(C)O)cc2)C(=O)O1", "note": "(racemic) [MD370047, 3-[4-(3-hydroxybutoxy)phenyl]-5-methoxymethyl-2-oxazolidinone]", "values": [{"measurement": "ED50", "setting": "5-HTP potentialisation", "result": 1.9, "unit": "mg/kg"}]}, {"smiles": "COCC1CN(c2ccc(OCCC(O)C(F)(F)F)cc2)C(=O)O1", "note": "(racemic) [MD370167, 3-[4-(4,4,4-trifluoro-3-hydroxybutoxy)phenyl]-5-methoxymethyl-2-oxazolidinone]", "values": [{"measurement": "ED50", "setting": "5-HTP potentialisation", "result": 1.1, "unit": "mg/kg"}]}, {"smiles": "COC[C@H]1CN(c2ccc(CCCC(C)O)cc2)C(=O)O1", "note": "(stereo partly drawn) [MD230082, 3-[4-(4-hydroxypentyl)phenyl]-5(R)-methoxymethyl-2-oxazolidinone]", "values": [{"measurement": "ED50", "setting": "5-HTP potentialisation", "result": 1.1, "unit": "mg/kg"}]}, {"smiles": "CCOC[C@H]1CN(c2ccc(OCC[C@@H](O)C(F)(F)F)cc2)C(=O)O1", "note": "[MD230197]", "values": [{"measurement": "ED50", "setting": "5-HTP potentialisation", "result": 2.4, "unit": "mg/kg"}]}, {"smiles": "COC[C@H]1CN(c2ccc(OCC3CCCC3O)cc2)C(=O)O1", "note": "(stereo partly drawn) [MD230201, 3-[4-(1-hydroxy-2-cyclopentylmethoxy)phenyl]-5(R)-methoxymethyl-2-oxazolidinone]", "values": [{"measurement": "ED50", "setting": "5-HTP potentialisation", "result": 1.6, "unit": "mg/kg"}]}, {"smiles": "COC[C@H]1CN(c2ccc(CCC[C@@H](C)O)cc2)C(=O)O1", "note": "[MD230238, 3-[4-(4(R)-hydroxypentyl)phenyl]-5(R)-methoxymethyl-2-oxazolidinone]", "values": [{"measurement": "ED50", "setting": "5-HTP potentialisation", "result": 1.9, "unit": "mg/kg"}]}, {"smiles": "COC[C@H]1CN(c2ccc(OCC[C@@H](C)O)cc2)C(=O)O1", "note": "[MD370120, 3-[4-(3(R)-hydroxybutoxy)phenyl]-5(R)-methoxymethyl-2-oxazolidinone]", "values": [{"measurement": "LD50", "setting": "acute toxicity in mouse", "result": 1400, "unit": "mg/kg"}, {"measurement": "ED50", "setting": "5-HTP potentialisation", "result": 0.83, "unit": "mg/kg"}]}, {"smiles": "COC[C@H]1CN(c2ccc(OCC[C@H](C)O)cc2)C(=O)O1", "note": "[MD370122, 3-[4-(3(S)-hydroxybutoxy)phenyl]-5(R)-methoxymethyl-2-oxazolidinone]", "values": [{"measurement": "ED50", "setting": "5-HTP potentialisation", "result": 0.68, "unit": "mg/kg"}]}, {"smiles": "COC[C@H]1CN(c2ccc(OCC[C@@H](O)C(F)(F)F)cc2)C(=O)O1", "note": "[MD370503, 3-[4-(4,4,4-trifluoro-3(R)-hydroxybutoxy)phenyl]-5(R)-methoxymethyl-2-oxazolidinone]", "values": [{"measurement": "LD50", "setting": "acute toxicity in mouse", "result": 2500, "unit": "mg/kg"}, {"measurement": "ED50", "setting": "5-HTP potentialisation", "result": 0.14, "unit": "mg/kg"}]}, {"smiles": "COC[C@H]1CN(c2ccc(OCC[C@H](O)C(F)(F)F)cc2)C(=O)O1", "note": "[MD370504, 3-[4-(4,4,4-trifluoro-3(S)-hydroxybutoxy)phenyl]-5(R)-methoxymethyl-2-oxazolidinone]", "values": [{"measurement": "ED50", "setting": "5-HTP potentialisation", "result": 1.8, "unit": "mg/kg"}]}, {"smiles": "Cc1cccc(N2CC(CO)OC2=O)c1", "note": "(stereo not shown) [TOLOXATONE, reference compound]", "values": [{"measurement": "ED50", "setting": "5-HTP potentialisation", "result": 30, "unit": "mg/kg"}]}]}
